Molecular target: T1, Sirt6 (Homo sapiens, UniProt Q8N6T7)
T1 construct: purchased CycLex CY-1156V2
Assay: Measurement of Sirt6 Activity (CycLex Sirt6 Deacetylase Fluorometric Assay Kit)
Type: biochemical
Conditions: compound at 10 μM; fluorescence relative to the group without compound treatment (positive control group)
Procedure, shortened: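 Recombinant Sirt6 with fluoro-labelled acetyl-lysine peptide, NAD and lysylendopeptidase developer, compound added from 10× stock in PBS; 1 h at room temperature. Fluorescence read at ex 490/em 530 nm; activation expressed as fluorescence ratio relative to enzyme without compound.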

T1 sequence (Q8N6T7 whole entry): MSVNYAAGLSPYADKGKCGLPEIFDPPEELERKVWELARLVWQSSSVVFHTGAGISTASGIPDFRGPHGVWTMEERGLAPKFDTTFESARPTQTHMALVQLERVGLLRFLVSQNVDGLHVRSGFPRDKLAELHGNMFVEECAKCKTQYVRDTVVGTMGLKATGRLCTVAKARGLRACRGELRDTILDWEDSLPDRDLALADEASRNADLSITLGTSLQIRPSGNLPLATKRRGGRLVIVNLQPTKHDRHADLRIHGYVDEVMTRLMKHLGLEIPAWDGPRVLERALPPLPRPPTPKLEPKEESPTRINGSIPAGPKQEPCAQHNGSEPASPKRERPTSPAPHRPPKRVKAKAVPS

| Compound | Sirt6 Activity (% activity, 10 μM) [% activity] |
| --- | --- |
| CNS(=O)(=O)c1cccc(-c2nn(-c3c(F)cccc3F)c(=O)c3ccccc23)c1 [Example 107, 3-(3-(2,6-Difluorophenyl)-4-oxo-3,4-dihydrophthalazin-1-yl)-N-methylbenzenesulfonamide] | 233 |
| CCNS(=O)(=O)c1cccc(-c2nn(-c3c(F)cccc3F)c(=O)c3ccccc23)c1 [Example 108, 3-(3-(2,6-Difluorophenyl)-4-oxo-3,4-dihydrophthalazin-1-yl)-N-ethylbenzenesulfonamide] | 209 |
| CN(C)S(=O)(=O)c1cccc(-c2nn(-c3c(F)cccc3F)c(=O)c3ccccc23)c1 [Example 109, 3-(3-(2,6-Difluorophenyl)-4-oxo-3,4-dihydrophthalazin-1-yl)-N,N-dimethylbenzenesulfonamide] | 188 |
| CS(=O)(=O)c1cccc(-c2nn(-c3ccccc3)c(=O)c3ccc(F)cc23)c1 [Example 110, 6-Fluoro-4-(3-(methylsulfonyl)phenyl)-2-phenylphthalazin-1(2H)-one] | 129 |
| CNS(=O)(=O)c1cccc(-c2nn(-c3ccccc3)c(=O)c3ccc(F)cc23)c1 [Example 111, 3-(7-Fluoro-4-oxo-3-phenyl-3,4-dihydrophthalazin-1-yl)-N-methylbenzenesulfonamide] | 126 |
| CS(=O)(=O)c1cccc(-c2nn(-c3ccccc3)c(=O)c3cc(F)ccc23)c1 [Example 112, 7-Fluoro-4-(3-(methylsulfonyl)phenyl)-2-phenylphthalazin-1(2H)-one] | 103 |
| CNS(=O)(=O)c1cccc(-c2nn(-c3ccccc3)c(=O)c3cc(F)ccc23)c1 [Example 113, 3-(6-Fluoro-4-oxo-3-phenyl-3,4-dihydrophthalazin-1-yl)-N-methylbenzenesulfonamide] | 116 |
| O=c1c2ccccc2c(-c2ccc[n+]([O-])c2)nn1-c1ccc(F)cc1 [Example 114, 3-(3-(4-Fluorophenyl)-4-oxo-3,4-dihydrophthalazin-1-yl)pyridine 1-oxide] | 226 |
| O=c1c2ccccc2c(-c2cccnc2)nn1-c1ccc(F)cc1F [Example 115, 2-(2,4-Difluorophenyl)-4-(pyridin-3-yl)phthalazin-1(2H)-one] | 405 |
| O=c1c2ccccc2c(-c2cccnc2)nn1-c1c(F)cccc1F [Example 116, 2-(2,6-Difluorophenyl)-4-(pyridin-3-yl)phthalazin-1(2H)-one] | 227 |
| O=c1c2ccccc2c(-c2ccc[n+]([O-])c2)nn1-c1ccc(F)cc1F [Example 117, 3-(3-(2,4-Difluorophenyl)-4-oxo-3,4-dihydrophthalazin-1-yl)pyridine 1-oxide] | 318 |
| O=c1c2ccccc2c(-c2ccc[n+]([O-])c2)nn1-c1c(F)cccc1F [Example 118, 3-(3-(2,6-Difluorophenyl)-4-oxo-3,4-dihydrophthalazin-1-yl)pyridine 1-oxide] | 231 |
| CS(=O)(=O)c1cccc(-c2nn(-c3ccc(F)cc3F)c(=O)c3ccc(F)cc23)c1 [Example 119, 2-(2,4-Difluorophenyl)-6-fluoro-4-(3-(methylsulfonyl)phenyl)phthalazin-1(2H)-one] | 166 |
| CS(=O)(=O)c1cccc(-c2nn(-c3ccc(F)cc3F)c(=O)c3cc(F)ccc23)c1 [Example 120, 2-(2,4-Difluorophenyl)-7-fluoro-4-(3-(methylsulfonyl)phenyl)phthalazin-1(2H)-one] | 178 |
| CNS(=O)(=O)c1cccc(-c2nn(-c3ccc(F)cc3F)c(=O)c3ccc(F)cc23)c1 [Example 121, 3-(3-(2,4-Difluorophenyl)-7-fluoro-4-oxo-3,4-dihydrophthalazin-1-yl)-N-methylbenzenesulfonamide] | 157 |
| CNS(=O)(=O)c1cccc(-c2nn(-c3ccc(F)cc3F)c(=O)c3cc(F)ccc23)c1 [Example 122, 3-(3-(2,4-Difluorophenyl)-6-fluoro-4-oxo-3,4-dihydrophthalazin-1-yl)-N-methylbenzenesulfonamide] | 177 |
| CCS(=O)(=O)c1cccc(-c2nn(-c3ccc(F)cc3F)c(=O)c3ccc(F)cc23)c1 [Example 123, 2-(2,4-Difluorophenyl)-4-(3-(ethylsulfonyl)phenyl)-6-fluorophthalazin-1(2H)-one] | 253 |
| CCNS(=O)(=O)c1cccc(-c2nn(-c3ccc(F)cc3F)c(=O)c3ccc(F)cc23)c1 [Example 124, 3-(3-(2,4-Difluorophenyl)-7-fluoro-4-oxo-3,4-dihydrophthalazin-1-yl)-N-ethylbenzenesulfonamide] | 146 |

| Compound | Sirt6 Activity (% activity, 10 μM) [% activity] |
| --- | --- |
| CN(C)S(=O)(=O)c1cccc(-c2nn(-c3ccc(F)cc3F)c(=O)c3ccc(F)cc23)c1 [Example 125, 3-(3-(2,4-Difluorophenyl)-7-fluoro-4-oxo-3,4-dihydrophthalazin-1-yl)-N,N-dimethylbenzenesulfonamide] | 172 |
| NS(=O)(=O)c1cccc(-c2nn(-c3ccc(F)cc3F)c(=O)c3ccccc23)c1 [Example 126, 3-(3-(2,4-Difluorophenyl)-4-oxo-3,4-dihydrophthalazin-1-yl)benzenesulfonamide] | 185 |
| O=c1c2ccccc2c(-c2cccc(S(=O)(=O)NCCO)c2)nn1-c1ccc(F)cc1F [Example 127, 3-(3-(2,4-Difluorophenyl)-4-oxo-3,4-dihydrophthalazin-1-yl)-N-(2-hydroxyethyl)benzene Sulfonamide] | 321 |
| CCS(=O)(=O)Nc1cccc(-c2nn(C3CCCCC3)c(=O)c3ccccc23)c1 [Example 128, N-(3-(3-Cyclohexyl-4-oxo-3,4-dihydrophthalazin-1-yl)phenyl)ethanesulfonamide] | 177.53 |
| CCS(=O)(=O)Nc1cccc(-c2nn(C3CCN(C)CC3)c(=O)c3ccccc23)c1 [Example 129, N-(3-(3-(1-Methylpiperidin-4-yl)-4-oxo-3,4-dihydrophthalazin-1-yl)phenyl)ethane Sulfonamide] | 104.16 |
| N#Cc1cccc(-c2nn(-c3ccc(F)cc3)c(=O)c3ccccc23)c1 [Example 130, 3-(3-(4-Fluorophenyl)-4-oxo-3,4-dihydrophthalazin-1-yl)benzonitrile] | 120.16 |
| N/C(=N/O)c1cccc(-c2nn(-c3ccc(F)cc3)c(=O)c3ccccc23)c1 [Example 131, (E)-3-(3-(4-Fluorophenyl)-4-oxo-3,4-dihydrophthalazin-1-yl)-N′-hydroxybenzimidamide] | 102.08 |
| CCS(=O)(=O)Nc1cccc(-c2nn(C(C)C)c(=O)c3ccccc23)c1 [Example 132, N-(3-(3-Isopropyl-4-oxo-3,4-dihydrophthalazin-1-yl)phenyl)ethanesulfonamide] | 107.58 |
| CCS(=O)(=O)Nc1cccc(-c2nn(-c3cnn(C)c3)c(=O)c3ccccc23)c1 [Example 133, N-(3-(3-(1-Methyl-1H-pyrazol-4-yl)-4-oxo-3,4-dihydrophthalazin-1-yl)phenyl)ethanesulfonamide] | 118.8 |
| Cl.NC1CCCN(c2nn(-c3ccc(F)cc3)c(=O)c3ccccc23)C1 (stereo not drawn) [Example 134, 4-(3-Aminopiperidin-1-yl)-2-(4-fluorophenyl)phthalazin-1(2H)-one-hydrochloride] | 167.53 |
| CCS(=O)(=O)NC1CCCN(c2nn(-c3ccc(F)cc3)c(=O)c3ccccc23)C1 (stereo not drawn) [Example 135, N-(1-(3-(4-Fluorophenyl)-4-oxo-3,4-dihydrophthalazin-1-yl)piperidin-3-yl)ethanesulfonamide] | 174.93 |
| CCS(=O)(=O)Nc1cccc(-c2nn(C3COC3)c(=O)c3ccccc23)c1 [Example 136, N-(3-(3-(Oxetan-3-yl)-4-oxo-3,4-dihydrophthalazin-1-yl)phenyl)ethanesulfonamide] | 101.27 |
| CCS(=O)(=O)NC1CCN(c2nn(-c3ccc(F)cc3)c(=O)c3ccccc23)C1 (stereo not drawn) [Example 137, N-(1-(3-(4-Fluorophenyl)-4-oxo-3,4-dihydrophthalazin-1-yl)pyrrolidin-3-yl)ethanesulfonamide] | 112.58 |
| CCS(=O)(=O)N[C@H]1CCCN(c2nn(-c3ccc(F)cc3)c(=O)c3ccccc23)C1 [Example 138, (S)—N-(1-(3-(4-Fluorophenyl)-4-oxo-3,4-dihydrophthalazin-1-yl)piperidin-3-yl)ethanesulfonamide] | 175.98 |
| CCS(=O)(=O)N[C@@H]1CCCN(c2nn(-c3ccc(F)cc3)c(=O)c3ccccc23)C1 [Example 139, (R)—N-(1-(3-(4-Fluorophenyl)-4-oxo-3,4-dihydrophthalazin-1-yl)piperidin-3-yl)ethanesulfonamide] | 130.07 |
| CCS(=O)(=O)Nc1cccc(-c2nn(C3CCC(F)(F)CC3)c(=O)c3ccccc23)c1 [Example 140, N-(3-(3-(4,4-Difluorocyclohexyl)-4-oxo-3,4-dihydrophthalazin-1-yl)phenyl)ethanesulfonamide] | 134.41 |
| CCS(=O)(=O)NC1CCCCN(c2nn(-c3ccc(F)cc3)c(=O)c3ccccc23)C1 (stereo not drawn) [Example 141, N-(1-(3-(4-Fluorophenyl)-4-oxo-3,4-dihydrophthalazin-1-yl)azepan-3-yl)ethanesulfonamide] | 212.55 |
| NS(=O)(=O)c1cccc(-c2nn(C3CCCCC3)c(=O)c3ccccc23)c1 [Example 142, 3-(3-Cyclohexyl-4-oxo-3,4-dihydrophthalazin-1-yl)benzenesulfonamide] | 162.3 |

Reference: patent publication US20220235011A1, “PHTHALAZINONE COMPOUNDS AND USE THEREOF” (ST PHARM CO., LTD., priority 2019, published 2022)
